Results from patent US12349708B2, “Use and methods of 1,3-propanediol to improve taste and/or off-taste qualities” (Primient Covation LLC, priority 2019, dated 2025).

Test system: experienced and trained panelist
Assay: Sensorial comparison of energy shot prototypes at various malic acid and sucralose levels with and without bioPDO (Example 5)
Assay type: in vivo, human
Settings: 0.2% bioPDO; sucralose and malic acid lowered by 32% and 47%
Description: • 1. Take 1st sip from a full 30 mL medicine cup, taste and swallow the 1st sample, wait 10 seconds, then take a 2nd sip and lock it into memory. Wait for 10 seconds. • 2. Proceed with 2nd sample. Taste 1st sip of the 2nd sample, wait for 10 seconds, and then use the 2nd sip to compare to the 2nd sip (or 3rd sip) of the 1st sample.
Each paired sample evaluation was repeated in triplicate with at least a 10-minute break and a carbon-treated water rinse.
The theory is to try to establish a reduced amount (concentration) of malic acid to match its sourness intensity of our energy shot prototype w/bioPDO to the control, energy shot prototype without bioPDO. Secondly, if this adjustment of lowering the malic acid concentration results in increasing sweetness, an additional step will be performed to reduce the amount of sucralose until both sourness and sweetness taste match that of the control w/o bioPDO. Below are the comparative sensorial evaluation results in Tables 33-36 including their specific sample formulations, observations, and results. Keywords of SUL, MA and CAF are sucralose, malic acid, and caffeine, respectively.

Which “taste quality effect of 0.2% addition” value does the source give for OCCCO [PDO, 1,3-propanediol] here?
Its value is “failed to further improve”.
